{"source": "patent US4859678A", "about": "“N-oxide ergolines as antihypertensive agents” (Farmitalia Carlo Erba, priority 1987, dated 1989)", "tested_on": "mean blood pressure", "assay": "Antihypertensive activity: intra-arterial mean blood pressure after single oral dose in rats", "assay_type": "in vivo", "conditions": "rat, p.o.; for ED25 (dose lowering mean blood pressure of 25 mmHg) / ED (25 mmHg): single dose, calculated from dose-response regression line; for Decrease in mean blood pressure at 15' / Decrease in mean blood pressure at 30' / Decrease in mean blood pressure at 1 h / Decrease in mean blood pressure at 2 h / Decrease in mean blood pressure at 3 h / Decrease in mean blood pressure at 4 h / Decrease in mean blood pressure at 5 h / Decrease in mean blood pressure at 6 h / Decrease in mean blood pressure at 8 h / Decrease in mean blood pressure at 10 h / Decrease in mean blood pressure at 12 h: ex 40 0.125, Example 1 0.5, ex 41 0.25, Example 2 1 mg/kg; for Decrease in mean blood pressure at 15': 15 min, not significant (**): Example 1; for Decrease in mean blood pressure at 30': 30 min; for Decrease in mean blood pressure at 6 h: not significant (**): ex 41; for Decrease in mean blood pressure at 8 h / Decrease in mean blood pressure at 10 h / Decrease in mean blood pressure at 12 h: not significant (**): ex 40, ex 41; for ED (25 mmHg): po, read-out: ED25 (dose lowering mean blood pressure of 25 mmHg)", "protocol": "Intrarterial measurements of mean blood pressure (MBP) were performed through catheters (PE 50, Clay Adams) implanted in the rat right carotid artery under halothane anesthesia. Twenty four hours after surgery, the animals were placed in Ballman cages and the arterial cannula was connected via a pressure transducer to a Beckman blood pressure recorder for continuous monitoring of mean blood pressure. MBP was recorded before the oral administration (basal values) and at 15-30-60-120-240 minutes until 12 hours after treatment. Groups of 7 to 8 rats were orally treated with a single dose of the test compound of vehicle, methocel 0.5% w/v (0.2 ml/100 g b.w.). The ED25 was calculated for each compound from the dose-response regression line.\nAs reference standard drugs, two prior art ergoline derivatives described by EP 0126968 were also tested.\nIn fact, the mean blood pressure decrease induced by the two derivatives of the present invention was still significant 10 to 12 hours after dosing, whereas with the prior art compounds the hypotensive effect lasted only 5 to 6 hours. The oral orientative acute toxicity (LD50) in mice (evaluated in the Irwin test) of the compounds of the formula I was higher than 800 mg/kg.", "data": [{"compound": "1-[6-methyl -Δ- 9,10-ergolen -8β- yl)methyl]-2,4-(1H,3H)dihydro-pyrimidinedione-N6-oxide [Example 1]", "values": [{"measurement": "ED25 (dose lowering mean blood pressure of 25 mmHg)", "value": 0.050, "unit": "mg/Kg^-1"}, {"measurement": "Decrease in mean blood pressure at 15'", "value": "-12.2 ΔmmHg"}, {"measurement": "Decrease in mean blood pressure at 30'", "value": "-21.0 ΔmmHg"}, {"measurement": "Decrease in mean blood pressure at 1 h", "value": "-32.2 ΔmmHg"}, {"measurement": "Decrease in mean blood pressure at 2 h", "value": "-35.5 ΔmmHg"}, {"measurement": "Decrease in mean blood pressure at 3 h", "value": "-45.1 ΔmmHg"}, {"measurement": "Decrease in mean blood pressure at 4 h", "value": "-55.1 ΔmmHg"}, {"measurement": "Decrease in mean blood pressure at 5 h", "value": "-58.5 ΔmmHg"}, {"measurement": "Decrease in mean blood pressure at 6 h", "value": "-54.3 ΔmmHg"}, {"measurement": "Decrease in mean blood pressure at 8 h", "value": "-44.3 ΔmmHg"}, {"measurement": "Decrease in mean blood pressure at 10 h", "value": "-35.5 ΔmmHg"}, {"measurement": "Decrease in mean blood pressure at 12 h", "value": "-27.2 ΔmmHg"}]}, {"compound": "C[N+]1([O-])C[C@H](CN2CC(=O)NC2=O)C=C2c3cccc4[nH]cc(c34)C[C@H]21", "note": "(stereo partly drawn) [Example 2, 1-[(6-methyl -Δ-9,10-ergolen-8β-yl)methyl]-2,4-imidazolidinedione-N6-oxide]", "values": [{"measurement": "ED (25 mmHg)", "value": 0.198, "unit": "mg/kg"}, {"measurement": "Decrease in mean blood pressure at 15'", "value": "-23.1 ΔmmHg"}, {"measurement": "Decrease in mean blood pressure at 30'", "value": "-27.5 ΔmmHg"}, {"measurement": "Decrease in mean blood pressure at 1 h", "value": "-35.9 ΔmmHg"}, {"measurement": "Decrease in mean blood pressure at 2 h", "value": "-34.1 ΔmmHg"}, {"measurement": "Decrease in mean blood pressure at 3 h", "value": "-35.0 ΔmmHg"}, {"measurement": "Decrease in mean blood pressure at 4 h", "value": "-38.4 ΔmmHg"}, {"measurement": "Decrease in mean blood pressure at 5 h", "value": "-36.5 ΔmmHg"}, {"measurement": "Decrease in mean blood pressure at 6 h", "value": "-34.1 ΔmmHg"}, {"measurement": "Decrease in mean blood pressure at 8 h", "value": "-27.8 ΔmmHg"}, {"measurement": "Decrease in mean blood pressure at 10 h", "value": "-22.5 ΔmmHg"}, {"measurement": "Decrease in mean blood pressure at 12 h", "value": "-16.2 ΔmmHg"}]}, {"compound": "CN1C[C@H](Cn2ccc(=O)[nH]c2=O)C=C2c3cccc4[nH]cc(c34)C[C@H]21", "note": "[Standard, ex 40 of EP 0126968, 1-[(6-methy -Δ-9,10-ergolen-8β-yl)methyl]-2,4-(1H,3H)dihydro-pyrimidine diole]", "values": [{"measurement": "ED25 (dose lowering mean blood pressure of 25 mmHg)", "value": 0.046, "unit": "mg/Kg^-1"}, {"measurement": "Decrease in mean blood pressure at 15'", "value": "-22.9 ΔmmHg"}, {"measurement": "Decrease in mean blood pressure at 30'", "value": "-34.5 ΔmmHg"}, {"measurement": "Decrease in mean blood pressure at 1 h", "value": "-33.9 ΔmmHg"}, {"measurement": "Decrease in mean blood pressure at 2 h", "value": "-37.3 ΔmmHg"}, {"measurement": "Decrease in mean blood pressure at 3 h", "value": "-34.5 ΔmmHg"}, {"measurement": "Decrease in mean blood pressure at 4 h", "value": "-42.7 ΔmmHg"}, {"measurement": "Decrease in mean blood pressure at 5 h", "value": "-28.9 ΔmmHg"}, {"measurement": "Decrease in mean blood pressure at 6 h", "value": "-25.5 ΔmmHg"}, {"measurement": "Decrease in mean blood pressure at 8 h", "value": "-10.5 ΔmmHg"}, {"measurement": "Decrease in mean blood pressure at 10 h", "value": "-7.3 ΔmmHg"}, {"measurement": "Decrease in mean blood pressure at 12 h", "value": "-6.7 ΔmmHg"}]}, {"compound": "CN1C[C@H](CN2CC(=O)NC2=O)C=C2c3cccc4[nH]cc(c34)C[C@H]21", "note": "[Standard, ex 41 of EP 0126968, 1-[(6-methyl-Δ-9,10-ergolen-8β-yl)methyl]-2,4-imidazolidinedione]", "values": [{"measurement": "ED (25 mmHg)", "value": 0.19, "unit": "mg/kg"}, {"measurement": "Decrease in mean blood pressure at 15'", "value": "-26.8 ΔmmHg"}, {"measurement": "Decrease in mean blood pressure at 30'", "value": "-31.4 ΔmmHg"}, {"measurement": "Decrease in mean blood pressure at 1 h", "value": "-29.6 ΔmmHg"}, {"measurement": "Decrease in mean blood pressure at 2 h", "value": "-37.5 ΔmmHg"}, {"measurement": "Decrease in mean blood pressure at 3 h", "value": "-35.7 ΔmmHg"}, {"measurement": "Decrease in mean blood pressure at 4 h", "value": "-31.4 ΔmmHg"}, {"measurement": "Decrease in mean blood pressure at 5 h", "value": "-15.7 ΔmmHg"}, {"measurement": "Decrease in mean blood pressure at 6 h", "value": "-14.6 ΔmmHg"}, {"measurement": "Decrease in mean blood pressure at 8 h", "value": "-2.5 ΔmmHg"}, {"measurement": "Decrease in mean blood pressure at 10 h", "value": "-6.5 ΔmmHg"}, {"measurement": "Decrease in mean blood pressure at 12 h", "value": "-9.4 ΔmmHg"}]}]}
